Measurements from patent EP1210336B1, “SUBSTITUTED BENZIMIDAZOLES AS NON-NUCLEOSIDE INHIBITORS OF REVERSE TRANSCRIPTASE” (THE UNITED STATES OF AMERICA, as represented by the …, priority 1999, dated 2001).
Read-outs that look alike come from different tables or passages of the source.

How the values were obtained:
[1] = test system: NL4-3 (WT); experiment: Cytopathic cell killing assay, cross-resistance profile, infected MT-4 cells; assay type: cell-based, HIV-1
Method in brief: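 Infected cultures (MOI chosen for complete cell death at 6 days, isolates matched by pre-titering) received serially diluted compound. Surviving cells were detected colorimetrically via XTT at 450 nm.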

[2] = molecular target: T1, HIV-1 WT RT (Human immunodeficiency virus type 1 group M subtype B, UniProt P03366); experiment: biochemical; conditions: for inhibition at 10 µM: read-out: %inhibn (10µM)
T1 construct: purified RT protein (0.015 mg/mL) was incubated in a 100 µL reaction mixture

[3] = test system: WT virus (NL4-3); experiment: microbe, parasite or virus in culture; assay type: cell-based, HIV-1; conditions: for EC50: Human immunodeficiency virus 1, NL43, CEM-SS, read-out: EC50
Method in brief: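 CEM-SS cells (5 x 10^3/well) infected with HIV-1 at an MOI giving complete killing by day 6 (e.g., 0.01-0.05), with serial half-log compound dilutions in triplicate. After 6 days at 37°C, viability read by XTT reduction at 450 nm. CIC50 derived from protection against cytopathic killing.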

[4] = molecular target: T1, HIV-1 WT RT; conditions: reported by Pauwels et al. (TIBO) and Buckheit et al. (thiazolobenzimidazole); read-out: IC50 for rC:dG; cited from earlier work
[5] = Human immunodeficiency virus 1, NL43, MT4, Table 4, isolate NL4-3 (WT)
[6] = Human immunodeficiency virus 1, NL43, MT4, Table 8, isolate N1.43
[7] = Human immunodeficiency virus 1, NL43, MT4, Table 9, isolate NL4.3
[8] = Table 1, WT RT, 10 µM drug concentration

Work on `Cc1cccc2c1nc(-c1c(F)cccc1F)n2Cc1c(F)cccc1F` [compound 33, 1-(2,6-difluorobenzyl)-2-(2,6-difluorophenyl)-4-methylbenzimidazole] yielded an EC50 [1, 5] of 0.5 µM, an EC50 [1, 6] of 0.5 µM and an EC50 [1, 7] of 0.5 µM. For the same compound, the EC50 ([1]; Human immunodeficiency virus 1, NL43, MT4, Table 10 (values in µM), isolate NL4-3 (WT)) was 0.5 µM, the “-fold better in the inhibition of the various viral isolates than the des-methyl analog 26” value ([1]; various viral isolates of Table 4) was 3- to 4 fold and the IC50 ([2]; HIV-1 WT RT, read-out: IC50) was 200 nM. The inhibition at 10 µM [2, 8] was 92%, the IC50 ([2]; Table 1, quantity of drug required to reduce WT RT enzyme activity by 50%, read-out: IC50) was 200 nM and the “%inhibn (10µM)” value ([2]; Table 2, WT RT, 10 µM drug concentration) was 92%. The IC50 ([2]; Table 7, HIV-1 WT RT, read-out: IC50) was 200 nM, the inhibition at 1 µM ([2]; Table 7, WT HIV-1 RT, 1 µM drug, read-out: %inhibn (1µM)) was 71% and the IC50 ([2]; Table 11, WT RT, read-out: IC50) was 200 nM. The IC50 ([2]; WT RT, read-out: IC50) was 200 nM, the “cytotoxicity and anti-viral effect (summary graph)” value ([3]; Figures 10-12, result in words) was “very effective therapeutic dose” and the EC50 ([3]; Table 7, concentration reducing cell killing or virus production by 50%, HIV-1 WT) was 440 nM. The EC50 ([3]; Table 11, CEMSS/NL4-3, NRVC = reduction in viral CPE not seen (footnote)) was 440 nM and the therapeutic index ([3]; difference between efficacy of the drug and cellular toxicity, Figure 10) was “greater than one log in concentration”.

For `Fc1cccc(F)c1C1SCc2nc3ccccc3n21` (centres unmarked) [TZB, 1-(2,6-difluorophenyl)-1H,3H-thiazolo[3,4-a]benzimidazole, reference compound], the EC50 [1, 5] was 1.7 µM, the EC50 [1, 6] was 10 µM and the EC50 [1, 7] was 1 µM. The IC50 [2] was 500 nM, the inhibition at 10 µM [2, 8] was 84% and the IC50 [4] was 500 nM.
